Experimental data from article PMC7808986 (Clinical Pharmacokinetics, 2020).
Where “and” joins values, the source holds several entries; their conditions need not be identical. Equal values may be shown once. Entries after “also recorded” stand apart in the source; their conditions may differ. Read-outs that look alike come from different tables or passages of the source. Marks after values point to notes of the source that are not given here.

Experiments:
[1] = cited from earlier work
[2] = cited from earlier work; remark: listed apart in the source
Adverse event monitoring = format: in vivo, NSCLC patients
[3] = format: in vivo, NSCLC patients; settings: for AUC / Cmax: geomean; for Cmax: Cmax (CV %); for Cmax RD, PPI with milk vs. PPI with water (95% CI): n = 15
[4] = Milk [n = 30], without and with esomeprazole
[5] = Water [n = 29], without and with esomeprazole

## Cc1cn(-c2cc(NC(=O)c3ccc(C)c(Nc4nccc(-c5cccnc5)n4)c3)cc(C(F)(F)F)c2)cn1 [nilotinib]
[1]
  Safety of coadministration with yoghurt: considered safe

## CS(=O)(=O)CCNCc1ccc(-c2ccc3ncnc(Nc4ccc(OCc5cccc(F)c5)c(Cl)c4)c3c2)o1 [lapatinib]
[2]; with a high-fat meal ref 3
  AUC increase: up to 325%
[2]; with a low-fat meal ref 3
  AUC increase: ≤ 200%

## C#Cc1cccc(Nc2ncnc3cc(OCCOC)c(OCCOC)cc23)c1 [erlotinib]
[2]; administered concomitantly with a high-fat meal ref 3
  Increase in exposure: 33–66%
[2]; high-fat meal taken 2 h after erlotinib administration ref 22
  AUC increase: 33%
[2]; high-fat meal, food and drug taken concomitantly ref 23
  Increase in AUC: 66%
Adverse event monitoring; Baseline [n = 30]
  All events, Grade 1–2: 29 (97) n (%)
  Alopecia, Grade 1–2: 12 (40) n (%)
  Constipation, Grade 1–2: 5 (17) n (%)
  Diarrhea, Grade 1–2: 6 (20) n (%)
  Fatigue, Grade 1–2: 10 (33) n (%)
  Nausea, Grade 1–2: 1 (3) n (%)
  Pain, Grade 1–2: 5 (17) n (%)
  Rash, Grade 1–2: 23 (77) n (%)
Adverse event monitoring; Baseline [n = 30], spinal fracture, not related to study procedures
  Serious adverse event, Grade 3: 1 (3%)^a n (%)
Adverse event monitoring; [4]
  All events, Grade 1–2: 28 (93) n (%)
  All events, Grade 3: 2 (6) n (%)
  Alopecia, Grade 1–2: 11 (37) n (%)
  Constipation, Grade 1–2: 3 (10) n (%)
  Diarrhea, Grade 1–2: 3 (10) n (%)
  Fatigue, Grade 1–2: 6 (20) n (%)
  Nausea, Grade 1–2: 3 (10) n (%)
  Nausea, Grade 3: 1 (3) n (%)
  Pain, Grade 1–2: 9 (30) n (%)
  Rash, Grade 1–2: 20 (67) n (%)
  Rash, Grade 3: 1 (3) n (%)
Adverse event monitoring; [5]
  All events, Grade 1–2: 28 (97) n (%)
  Alopecia, Grade 1–2: 11 (38) n (%)
  Constipation, Grade 1–2: 1 (3) n (%)
  Diarrhea, Grade 1–2: 3 (10) n (%)
  Fatigue, Grade 1–2: 10 (34) n (%)
  Nausea, Grade 1–2: 3 (10) n (%)
  Pain, Grade 1–2: 7 (24) n (%)
  Rash, Grade 1–2: 18 (62) n (%)
Adverse event monitoring; independent of study arm (with and without PPI)
  Difference in toxicities between milk and water periods: No differences in toxicities were observed; also recorded: Patient-reported toxicity was equal between the milk and water groups, with and without proton pump inhibitors. Hence, cow’s milk can be used as a safe alternative to water for the administration of erlotinib. Concomitant treatment with esomeprazole should be avoided if possible
Adverse event monitoring; overall
  Patient-reported adverse events during study compared with baseline: did not increase compared with baseline
[3]; No PPI with milk [n = 14]
  Tmax (IQR), median: 2.50 (2.00–3.00) hours
[3]; PPI (esomeprazole), with milk
  Interpatient variability (CV) in AUC24: 38%
[3]; PPI (esomeprazole), with water
  Interpatient variability (CV) in AUC24: 61%
[3]; both study arms, non-significant
  Increase in Tmax with milk vs water: 0.5 h
[3]; esomeprazole 40 mg once daily 3 h prior to erlotinib vs no esomeprazole, n = 9
  Decrease in erlotinib AUC24 by esomeprazole: 47% and ~50%
[3]; human, plasma, oral, AUC24 (CV %), No PPI [n = 9], patients in both study arms, corrected for coadministration with milk
  AUC: 20100 ng·h/mL
[3]; human, plasma, oral, AUC24 (CV %), PPI [n = 9], patients in both study arms, corrected for coadministration with milk
  AUC: 10600 ng·h/mL
[3]; human, plasma, oral, AUC24 (CV%), No PPI with milk [n = 14]
  AUC: 22400 ng·h/mL
[3]; human, plasma, oral, PPI [n = 9], patients in both study arms, corrected for coadministration with milk
  Cmax: 750 ng/mL
[3]; human, plasma, oral, PPI with milk [n = 15]
  Cmax: 820 ng/mL
[3]; human, plasma, po
  Tmax: 2.52 h
[3]; human, plasma, po, AUC24 (CV%), No PPI with water [n = 14]
  AUC: 23000 ng·h/mL
[3]; human, plasma, po, No PPI with water [n = 14]
  Cmax: 1850 ng/mL
[3]; human, plasma, po, PPI with water [n = 15]
  Cmax: 810 ng/mL
[3]; n = 14
  Cmax RD, no-PPI with milk vs. no-PPI with water (95% CI): 6%
[3]
  Cmax RD, PPI with milk vs. PPI with water (95% CI): 1%
[3]; listed as Erlotinib
  Cmax RD, PPI with milk vs. PPI with water (95% CI): 1.5% (− 12 to 17%)
[3]; no PPI, with milk
  Interpatient variability (CV) in AUC24: 35%
[3]; no PPI, with water
  Interpatient variability (CV) in AUC24: 37%
[3]; non-PPI patients, non-significant
  Decrease in AUC24 when administered with milk compared with water: 3%
